Reference: US20250241906A1, “ANABOLIC DRUGS STIMULATING TYPE II COLLAGEN PRODUCTION FROM CHONDROCYTES OR THEIR PROGENITORS” (UNIVERSITY OF CENTRAL FLORIDA RESEARCH FOUNDATION, INC., priority 2022, published 2025)
“Also recorded” adds a separate entry of the source. Where two headings read alike, the source gives them in different places.

Columns and labels:
[1] = tested on: type II collagen promoter (COL2A1-Gaussia luciferase) in primary human chondrocytes; assay: HuCol2gLuc 3D aggregate type II collagen promoter-driven Gaussia luciferase assay; format: cell-based; conditions: for stimulation of type II collagen production in the screen of natural products: NCI Natural Products Set V, 5 μM continuously, 22-day assay; for cumulative luminescence: validation
Method: Chondrogenic Culture. Human COL2A1-GLuc or uninfected cells were thawed and seeded in growth media on synoviocyte matrix at 6,000 cells/cm^2 and expanded to 90-100% confluence in physioxia. Cells were trypsinized (0.25% Trypsin/EDTA; Corning), resuspended in growth media (for monolayer culture) or chondrogenic differentiation media for 3D aggregates (93.24% High-Glucose DMEM (Gibco), 1% dexamethasone 10^−5M (Sigma), 1% ITS+premix (Becton-Dickinson), 1% Glutamax (Hyclone), 1% 100 mM Sodium Pyruvate (Hyclone), 1% MEM Non-Essential Amino Acids (Hyclone), 0.26% L-Ascorbic Acid Phosphate 50 mM (Wako), 0.5% Fungizone (Life Technologies) with TGF-β1 (Peprotech) and seeded as described below.
Generation and Maintenance of 3D aggregates. To generate 3D aggregates, cells were seeded at 50,000 cells per well (in 96-well cell repellent u-bottom plates, GreinerBio) and then centrifuged at 500 RCF, 5 min. For the initial drug screen, aggregates were cultured in basal chondrogenic media (1 ng/ml TGF-β1) alone, with DMSO (vehicle control) or 5 μM of the drug compounds from the NCI library (Natural Products V, NCI). For candidate validation and subsequent studies aggregates were cultured in basal chondrogenic media (10 ng/ml TGF-β1) alone, with DMSO (vehicle control) or compounds as indicated in the results. Aggregates were cultured for three weeks in physioxic conditions, culture medium was sampled and replaced three times a week with fresh medium. An OT-2 (Opentrons) python coded robotic pipette, programmed at an aspiration height of 2 mm from the bottom of the wells and aspiration rate of 40 μl/s was utilized for addition of compound, cell feeding, and media sampling for luciferase assay. After three weeks, cell aggregates were either fixed in neutral buffered formalin for histology or medium removed and aggregates frozen dry (−20° C.) for biochemical assays.
Luciferase Assay. Conditioned culture medium sampled from aggregates in 96-wells (20 μL/well) was assessed using a stabilized Gaussia Luciferase buffer mix (50 µl/well) for a final concentration of 0.09 M MES, 0.15M Ascorbic Acid, and 4.2 μM Coelenterazine in white 96-well plates. Luminescence was measured in a plate reader (25° C., relative light units (RLU), En Vision plate reader). An OT-2 (Opentrons) python coded robotic pipette was utilized for luciferase buffer addition to white plates (GreinerBio).

HuCol2gLuc aggregates [2] = assay: Biochemical assays (DNA, GAG, total collagen) on HuCol2gLuc aggregates; format: cell-based, human
Method: Biochemical Assays. Aggregates frozen at day 22, were thawed with PBS, and digested with Papain (25 μg/ml, Sigma, P4762, in 2 mM cysteine; 50 mM sodium phosphate; 2 mM EDTA at a pH 6.5, 100 μl) at 65° C. overnight. Plates were sealed with a qPCR adhesive sealing film (USA Scientific), a silicone sheet, and steel plates clamped to the plate to prevent evaporation during digestion. Half of the digest (50 μl) was transferred to another plate and frozen for hydroxyproline assessment. In the remaining digest, papain was inactivated with 0.1M sodium hydroxide (NaOH, 50 μl) followed by NaOH neutralization (100 mM Na2HPO4, 0.1 N HCL, pH 1.82, 50 μl). To quantitate DNA content, samples of the neutralized digest (20 μl) were combined with buffered Hoechst dye (#33258, 667 ng/ml, phosphate buffer pH 8, 100 μl) and fluorescence measured at an excitation of 365 nm and emission of 460 nm. For GAG assessment, 1,9-Dimethyl-methylene blue solution (195 μl) was added to neutralized digests (5 μl) and absorbance measured at 595 nm and 525 nm. Readings were corrected by subtracting 595 nm reading from 525 nm. Micrograms of DNA and GAG were calculated using a Calf thymus DNA standard (Sigma) or Chondroitin Sulfate standard (Seikagaku Corp.), respectively.
For hydroxyproline (HP) quantification, the frozen digests (50 μl) were thawed at room temperature and incubated overnight at 105° C. with 6M hydrochloric acid (200 μl). Plates were sealed to prevent evaporation. Samples were then dried at 70° C. overnight with a hydroxyproline standard (Sigma). Copper sulfate (0.15 M, 10 μl) and NaOH (2.5 M, 10 μl) were added to each well and incubated at 50° C. for 5 minutes, followed by hydrogen peroxide (6%, 10 μl) for 10 minutes. Sulfuric acid (1.5 M, 40 μl) and Ehrlich's reagent (20 μl) were added and samples incubated at 70° C. for 15 minutes. Absorbance was measured at 505 nm. Micrograms of hydroxyproline were calculated using the standard. Total collagen was calculated by the following formula (μg of HP×7.6=μg Total Collagen).

HuCol2gLuc aggregates [3] = assay: Metabolic assay (resazurin) on HuCol2gLuc aggregates; format: cell-based, human; conditions: day 22
Method: Metabolic Assay (Resazurin). Metabolic activity was assessed on day 22 by adding resazurin to a final concentration of 50 μM to each well and incubating at physioxia for 3 hours. After three hours, media (120 μl) was transferred to a 96-well black plate (Greinerbio) and fluorescence read at an excitation of 535 nm and emission at 588 nm. At OT-2 (Opentrons) python-coded robotic pipette was used to add resazurin to cell plates as well as to transfer medium to black plates.

[4] = tested on: kinase phosphorylation in primary human chondrocytes; assay: Phospho-kinase array on primary human chondrocyte lysate; format: cell-based; conditions: donor 2, 24 h, vs DMSO
Method: Phospho-kinase Array. Primary human chondrocytes were seeded at 5×10^6 cells (2×10 cm adherent dish, Corning) in growth media and allowed to adhere overnight. Growth media was replaced with chondrogenic media supplemented with 1 ng/mL TGFβ1 with DMSO or with drug […]. Cells were treated for 24 h before processing according to the manufacturer's protocol (ARY003C, R&D Systems). This phospho-kinase array contains capture antibodies to measure relative levels of phosphorylation of 37 kinases on a nitrocellulose membrane. Signal intensity was quantified using ImageJ.

butyrylcholinesterase = butyrylcholinesterase (Homo sapiens, UniProt P06276); conditions: cited from earlier work
Sequence of butyrylcholinesterase (P06276 29-602): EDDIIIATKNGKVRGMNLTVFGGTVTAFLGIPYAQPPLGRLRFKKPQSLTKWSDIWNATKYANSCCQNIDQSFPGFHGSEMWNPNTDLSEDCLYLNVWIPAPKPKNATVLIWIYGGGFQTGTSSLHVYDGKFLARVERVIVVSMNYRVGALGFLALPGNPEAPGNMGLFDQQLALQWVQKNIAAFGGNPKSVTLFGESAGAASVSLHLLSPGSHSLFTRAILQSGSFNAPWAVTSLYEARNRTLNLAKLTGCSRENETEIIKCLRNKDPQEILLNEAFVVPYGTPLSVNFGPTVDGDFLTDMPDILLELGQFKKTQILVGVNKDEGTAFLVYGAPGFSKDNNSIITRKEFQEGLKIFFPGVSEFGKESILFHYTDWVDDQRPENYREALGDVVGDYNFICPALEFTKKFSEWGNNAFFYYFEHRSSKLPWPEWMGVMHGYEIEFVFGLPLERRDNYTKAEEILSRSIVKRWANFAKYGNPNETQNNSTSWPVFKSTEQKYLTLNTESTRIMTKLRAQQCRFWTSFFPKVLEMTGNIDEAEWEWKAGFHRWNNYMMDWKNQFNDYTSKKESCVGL

Plasmodium falciparum = conditions: cited from earlier work
KB cell line = conditions: cited from earlier work

## Promoline [Drug 84]
[1]; listed as 84
  stimulation of type II collagen production in the screen of natural products: stimulatory effects; also recorded: stimulatory throughout the experiment
[1]; listed as Promoline
  stimulation of type II collagen production in the screen of natural products: stimulate type II collagen
[1]; cumulative luminescence over 22 days
  EC50: 3070 nM
[1]; day 3, 0-10 μM, read-out: EC50 type II collagen driven-luminescence
  EC50: 2460 nM
[1]; day 10, 0-10 μM, read-out: EC50 type II collagen driven-luminescence
  EC50: 2580 nM
[1]; natural product screen, day 8 volcano plot
  stimulation of type II collagen production during the early stages: stimulate type II collagen production during the early stages
[1]; screen, 5 μM, 1 ng/ml TGF-β1
  day 22 luminescence normalized to DMSO vehicle control: significant increase in luminescence
  trend of luminescence over 22 days normalized to DMSO: increase over the control as early as day 3 with a sustained increase in expression over 22 days
[1]; donor 1
  cumulative luminescence: no significant effect
[1]; donor 2
  cumulative luminescence: significant increase
HuCol2gLuc aggregates [2]; day 22, donor 1
  glycosaminoglycan (GAG) content: not statistically significant
  total collagen: no observable effect
HuCol2gLuc aggregates [2]; day 22, donor 2, vs untreated
  DNA content: no change in DNA content
HuCol2gLuc aggregates [2]; day 22, donor 2, untreated 15 μg
  glycosaminoglycan (GAG) content: decrease in GAG content
HuCol2gLuc aggregates [2]; day 22, donor 2, untreated ~14 μg
  total collagen: ~21 µg
HuCol2gLuc aggregates [2]; day 22, 10 μM
  DNA content: significant decrease
HuCol2gLuc aggregates [3]; 10 μM
  cytotoxicity: cytotoxicity
HuCol2gLuc aggregates [3]; 0-10 μM
  resazurin fluorescence (metabolic activity): dose dependent decrease
[4]
  AKT 1/2/3 phosphorylation at T308 and S473: substantial decrease
  p53 S15, STAT3 Y705 phosphorylation and HSP 60: less considerable decrease
  phosphorylation of CREB, EGFR, and eNOS: modest increase
butyrylcholinesterase
  inhibition of butyrylcholinesterase: potent inhibitor
Plasmodium falciparum
  anti-microbial activity against Plasmodium falciparum: weak anti-microbial activity
KB cell line
  cytotoxicity in the KB cell line: low cytotoxicity
